Laboratory results taken from US8106155B2, “Test kit for determining process for determining antibiotics containing a beta-lactam ring in a biological fluid” (Neogen Corporation, priority 1998, dated 2012).

Tests used:
BlaR-CTD receptor [1] = target: T1, BlaR-CTD receptor (Bacillus licheniformis, UniProt P12287); experiment: 3-minute rapid test: BlaR-CTD coupled to gold beads, membrane test device, milk; assay type: binding; conditions: test carried out in 3 minutes, 47° C.; positive when 1st band less intense than 2nd band
T1 construct: uses the BlaR-CTD receptor coupled to gold beads
T1 sequence (P12287 354-601): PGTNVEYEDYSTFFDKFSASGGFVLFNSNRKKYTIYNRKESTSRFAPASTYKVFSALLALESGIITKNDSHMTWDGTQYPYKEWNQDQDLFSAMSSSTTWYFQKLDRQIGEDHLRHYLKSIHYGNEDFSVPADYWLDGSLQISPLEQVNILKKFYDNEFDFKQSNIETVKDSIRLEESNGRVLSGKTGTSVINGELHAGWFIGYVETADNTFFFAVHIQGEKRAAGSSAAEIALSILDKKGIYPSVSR
Procedure: (§1) This example illustrates the detection in milk of antibiotics containing a β-lactam ring, which are controlled by the health authorities. The test described in this example uses the BlaR-CTD receptor coupled to gold beads which serve as labelling agents, and uses a support in the form of a test device comprising a solid support to which membranes are attached.
7 samples of fresh milk containing 0; 1; 2; 3; 4; 5 and 6 ppb of penicillin G, respectively, are prepared. Each of these solutions is then analyzed in the following way:
(§2) A 200 μl aliquot sample of milk and 45.27 μl of solution prepared in Example 1.1.3 are taken and placed in a glass flask. This mixture is incubated for 1 minute at 47° C. A test device is taken and placed vertically in the glass flask such that the first end of the test device is in contact with the mixture and such that the second end rests on the wall of the glass flask. The mixture is left to migrate on the test device, while incubating the assembly for 2 minutes at 47° C.
(§3) An intensity value ranging from 0 to 10 is attributed to the bands detected, the value 10 being given to the most intense band and the value 0 being given to the least intense band. According to this scale, a value of 6 is assigned to the reference band. The intensity of the signal observed in the first band is inversely proportional to the amount of penicillin G present in the sample.
(§4) In this example, when the first band has an intesity less than that of the second band, the test is considered as being positive.

BlaR-CTD receptor [2] = target: T1, BlaR-CTD receptor; experiment: 5-minute test: BlaR-CTD coupled to gold beads, membrane test device, milk; assay type: binding; conditions: 47° C.; for concentration detected in a sample of milk: test carried out in 5 minutes, positive when 1st band less intense than 2nd band; for Intensity 1st band: 5-minute test, scale 0 to 10, reference band 6
Procedure: as §1
6 samples of fresh milk containing 0; 2; 4; 6; 8 and 10 ppb of cloxacillin, respectively, are prepared. Each of these solutions is then analyzed in the following way.
as §2, with “3 minutes” for “1 minute”
as §3, with “cloxacillin” for “penicillin G”
as §4

BlaR-CTD receptor [3] = target: T1, BlaR-CTD receptor; experiment: 9-minute test: BlaR-CTD coupled to gold beads, membrane test device, milk; assay type: binding; conditions: test carried out in 9 minutes, 47° C.; positive when 1st band less intense than 2nd band
Procedure: as §1
6 samples of fresh milk containing 0; 4; 6; 8; 10 and 12 ppb of cephapirin, respectively, are prepared. Each of these solutions is then analyzed in the following way.
as §2, with “7 minutes” for “1 minute”
as §3, with “cephapirin” for “penicillin G”
as §4

[4] = tested on: protein isolated from an antibiotic-sensitive microorganism, such as Bacillus stearothermophilus; conditions: Example 1 of European Patent Application 593 112; cited from earlier work
[5] = target: T2, BlaR-CTD receptor in the form of two fusion proteins with alkaline phosphatase and peroxidase (Bacillus licheniformis, UniProt P12287); experiment: Example 3: BlaR-CTD fusion proteins with alkaline phosphatase and peroxidase, cephalosporin C microplate, milk; assay type: binding; conditions: absorbance at 405 nm, 47° C., at the control thresholds required by the US authorities
T2 construct: uses the BlaR-CTD receptor in the form of two fusion proteins with alkaline phosphatase and peroxidase, respectively; alkaline phosphatase, chemically coupled (Boehringer-Mannheim 1464752); peroxidase, chemically coupled (Boehringer-Mannheim 1428861)
T2 sequence (P12287 354-601): as above
From the text: This example illustrates the detection in milk of 3 antibiotics containing a β-lactam ring which are controlled by the health authorities. The test described in this example uses the BlaR-CTD receptor in the form of two fusion proteins with alkaline phosphatase and peroxidase, respectively, and uses a support in the form of a microplate.
Polystyrene microplates with high protein adsorption, of the brand name NUNK (Immuno Plate: Maxisorp type) or of the brand name GREINER (microlon 600, reference 705071), are used. The microplate cuvettes are washed with 150 mM, pH 7.2 PBS buffer. Next, an aliquot of the solution prepared in Example 3.3.1. is incubated for 24 hours at 4° C. in the cuvettes. After incubation, the cuvettes are washed three times with 150 mM, pH 7.2 PBS buffer, 0.1% Tween-20. The tube is then saturated for two hours at 20° C. with 150 mM, pH 7.2 PBS saturation buffer, 5% BSA. After washing three times with washing buffer, the tubes are dried and stored at 4° C. away from moisture.
For the cuvettes intended for the BlaR-CTD-alkaline phosphatase recognition agent, the washing buffer used is 1 M, pH 9.8 diethanolamine, 0.5 mM MgCl2: for the cuvettes intended for the BlaR-CTD-peroxidase recognition agent, the washing buffer used is 50 mM, pH 5 potassium phosphate.
1.4 picomol of labelled recognition agent are incubated in the presence of 100 μl of doped milk for 5 minutes at 47° C. The milk is transferred using a pipette into a cuvette which has been pretreated as indicated in Example 2.3. The milk is then incubated for 2 minutes at 47° C. […] The plate is then placed in an automatic spectrophotometer for ELISA plates, the wavelength being set at 405 nm.

| Structure (SMILES) | concentration detected in a sample of milk (BlaR-CTD receptor [1]) | concentration detected in a sample of milk (BlaR-CTD receptor [2]) | concentration detected in a sample of milk (BlaR-CTD receptor [3]) | other results |
| --- | --- | --- | --- | --- |
| CC1(C)S[C@@H]2[C@H](NC(=O)[C@H](N)c3ccc(O)cc3)C(=O)N2[C@H]1C(=O)O [amoxicillin] | 5 ppb | 4 ppb | 4 ppb | concentration detected [4]: 5 ppb |
| CC1(C)S[C@@H]2[C@H](NC(=O)[C@H](N)c3ccccc3)C(=O)N2[C@H]1C(=O)O [ampicillin] | 5 ppb | 4 ppb | 4 ppb | concentration detected [4]: 10 ppb |
| Cc1nnc(SCC2=C(C(=O)O)N3C(=O)[C@@H](NC(=O)Cn4cnnn4)[C@H]3SC2)s1 [cefazoline] | – | 60 ppb | 45 ppb | – |
| CO/N=C(\C(=O)N[C@@H]1C(=O)N2C(C(=O)[O-])=C(C[n+]3cccc4c3CCCC4)CS[C@H]12)c1csc(N)n1 [cefquinone] | – | less than 20 ppb | – | – |
| Cc1onc(-c2ccccc2Cl)c1C(=O)N[C@@H]1C(=O)N2[C@@H]1SC(C)(C)[C@@H]2C(=O)O [cloxacillin] | less than 10 ppb | less than 4 ppb | 4 ppb | Intensity 1st band (BlaR-CTD receptor [2]; 2 ppb cloxacillin in milk): 6; Intensity 1st band (BlaR-CTD receptor [2]; 4 ppb cloxacillin in milk): 5; Intensity 1st band (BlaR-CTD receptor [2]; 6 ppb cloxacillin in milk): 3; Intensity 1st band (BlaR-CTD receptor [2]; 8 ppb cloxacillin in milk): 3; Intensity 1st band (BlaR-CTD receptor [2]; 10 ppb cloxacillin in milk): 3; concentration detected in milk [5]: 10 ppb |
| Cc1onc(-c2c(Cl)cccc2Cl)c1C(=O)N[C@@H]1C(=O)N2[C@@H]1SC(C)(C)[C@@H]2C(=O)O [dicloxacillin] | – | 8 ppb | – | – |
| CCOc1ccc2ccccc2c1C(=O)N[C@@H]1C(=O)N2[C@@H]1SC(C)(C)[C@@H]2C(=O)O [nafcillin] | – | 20 ppb | – | – |
| Cc1onc(-c2ccccc2)c1C(=O)N[C@@H]1C(=O)N2[C@@H]1SC(C)(C)[C@@H]2C(=O)O [oxacillin] | – | 8 ppb | – | – |
